Species on record: Rattus norvegicus
Assay: Open TG-GATES - Regimen: Daily Repeat
Format: toxicity, organism-based, Sprague-Dawley
Set-up: regimen Daily Repeat, gender Male, age 6 weeks
Conditions: in vivo, po, route gavage; for APTT / Bas / Eos / Fbg / Ht / Lym / MCHC / MCV / Mono / PT / Plat / RBC / Ret / WBC: tissue Blood; for KIDNEY_L / KIDNEY_R / KIDNEY_TOTAL: tissue Kidney; for LIVER: tissue Liver; for ALP / ALT / AST / BUN / CRE / Ca / Cl / DBIL / IP / LDH / Na / PL / RALB / TBIL / TC / TG / TP / gamma-GTP: tissue Plasma
[1] = 120 mg/kg, 72 h, dose level Middle, time 3 day
[2] = 120 mg/kg, […], dose level Middle, time 7 day
[3] = 120 mg/kg, […], dose level Middle, time 14 day
[4] = 120 mg/kg, […], dose level Middle, time 28 day
[5] = 400 mg/kg, 72 h, dose level High, time 3 day
[6] = 400 mg/kg, […], dose level High, time 7 day
[7] = 400 mg/kg, […], dose level High, time 14 day
[8] = 400 mg/kg, […], dose level High, time 28 day

SMILES: CC(C)N(CCC(C(N)=O)(c1ccccc1)c1ccccn1)C(C)C (stereo not given) [DISOPYRAMIDE]
- APTT [1]: 20.4 s
- Bas [1]: 0%
- Eos [1]: 1%
- Fbg [1]: 319.6 mg/dL
- Ht [1]: 41.1%
- Lym [1]: 78.4%
- MCHC [1]: 32.2%
- MCV [1]: 62.6 fL
- Mono [1]: 2.6%
- PT [1]: 15.5 s
- Plat [1]: 125 x10_4/uL
- RBC [1]: 657.8 x10_4/ul
- Ret [1]: 5.3%
- WBC [1]: 107.5 x10_2/uL
- KIDNEY_L [1]: 1 g
- KIDNEY_R [1]: 1 g
- KIDNEY_TOTAL [1]: 2 g
- LIVER [1]: 10.6 g
- ALP [1]: 1634.4 IU/L
- ALT [1]: 52.4 IU/L
- AST [1]: 74 IU/L
- BUN [1]: 15.6 mg/dL
- CRE [1]: 0.2 mg/dL
- Ca [1]: 10.8 mg/dL
- Cl [1]: 106.6 meq/L
- DBIL [1]: 0 mg/dL
- IP [1]: 7.7 mg/dL
- LDH [1]: 174.6 IU/L
- Na [1]: 142.8 meq/L
- PL [1]: 151.2 mg/dL
- RALB [1]: 2.9 g/dL
- TBIL [1]: 0 mg/dL
- TC [1]: 79.2 mg/dL
- TG [1]: 111.8 mg/dL
- TP [1]: 5.4 g/dL
- gamma-GTP [1]: 1.6 IU/L
- TERMINAL_BW [2]: 247.4 g
- TERMINAL_BW [3]: 313.2 g
- TERMINAL_BW [4]: 369.7 g
- APTT [2]: 21.5 s
- Bas [2]: 0%
- Eos [2]: 1%
- Fbg [2]: 327.2 mg/dL
- Ht [2]: 41%
- Lym [2]: 82%
- MCHC [2]: 32.6%
- MCV [2]: 59.6 fL
- Mono [2]: 1.8%
- PT [2]: 15.8 s
- Plat [2]: 116.6 x10_4/uL
- RBC [2]: 688.8 x10_4/ul
- Ret [2]: 5.7%
- WBC [2]: 102 x10_2/uL
- APTT [3]: 23.1 s
- Bas [3]: 0%
- Eos [3]: 0.8%
- Fbg [3]: 331.4 mg/dL
- Ht [3]: 41.2%
- Lym [3]: 79.8%
- MCHC [3]: 32.5%
- MCV [3]: 58.9 fL
- Mono [3]: 2.4%
- PT [3]: 15.5 s
- Plat [3]: 117.3 x10_4/uL
- RBC [3]: 700.2 x10_4/ul
- Ret [3]: 4.5%
- WBC [3]: 125.1 x10_2/uL
- APTT [4]: 24.7 s
- Bas [4]: 0%
- Eos [4]: 1%
- Fbg [4]: 323.2 mg/dL
- Ht [4]: 42.5%
- Lym [4]: 79.2%
- MCHC [4]: 33.7%
- MCV [4]: 55.5 fL
- Mono [4]: 2.4%
- PT [4]: 15.2 s
- Plat [4]: 103.8 x10_4/uL
- RBC [4]: 768.2 x10_4/ul
- Ret [4]: 2.6%
- WBC [4]: 105.7 x10_2/uL
- KIDNEY_L [2]: 1.1 g
- KIDNEY_R [2]: 1.1 g
- KIDNEY_TOTAL [2]: 2.2 g
- KIDNEY_L [3]: 1.2 g
- KIDNEY_R [3]: 1.3 g
- KIDNEY_TOTAL [3]: 2.5 g
- KIDNEY_L [4]: 1.4 g
- KIDNEY_R [4]: 1.5 g
- KIDNEY_TOTAL [4]: 2.9 g
- LIVER [2]: 11.4 g
- LIVER [3]: 14.2 g
- LIVER [4]: 15.6 g
- ALP [2]: 1449.8 IU/L
- ALT [2]: 48.2 IU/L
- AST [2]: 77.4 IU/L
- BUN [2]: 16.4 mg/dL
- CRE [2]: 0.2 mg/dL
- Ca [2]: 10.6 mg/dL
- Cl [2]: 106.2 meq/L
- DBIL [2]: 0 mg/dL
- IP [2]: 7.5 mg/dL
- LDH [2]: 167.8 IU/L
- Na [2]: 141.6 meq/L
- PL [2]: 145 mg/dL
- RALB [2]: 3 g/dL
- TBIL [2]: 0 mg/dL
- TC [2]: 75.8 mg/dL
- TG [2]: 107.8 mg/dL
- TP [2]: 5.5 g/dL
- gamma-GTP [2]: 1.4 IU/L
- ALP [3]: 1779.4 IU/L
- ALT [3]: 41.4 IU/L
- AST [3]: 64.8 IU/L
- BUN [3]: 15.6 mg/dL
- CRE [3]: 0.1 mg/dL
- Ca [3]: 10.6 mg/dL
- Cl [3]: 105.6 meq/L
- DBIL [3]: 0 mg/dL
- IP [3]: 7.1 mg/dL
- LDH [3]: 139.4 IU/L
- Na [3]: 142.6 meq/L
- PL [3]: 146.6 mg/dL
- RALB [3]: 3.1 g/dL
- TBIL [3]: 0.004 mg/dL
- TC [3]: 66 mg/dL
- TG [3]: 194 mg/dL
- TP [3]: 5.8 g/dL
- gamma-GTP [3]: 2 IU/L
- ALP [4]: 1162.8 IU/L
- ALT [4]: 55 IU/L
- AST [4]: 85.2 IU/L
- BUN [4]: 17 mg/dL
- CRE [4]: 0.2 mg/dL
- Ca [4]: 10.7 mg/dL
- Cl [4]: 106.4 meq/L
- DBIL [4]: 0 mg/dL
- IP [4]: 6.7 mg/dL
- LDH [4]: 190.2 IU/L
- Na [4]: 140.6 meq/L
- PL [4]: 151 mg/dL
- RALB [4]: 2.9 g/dL
- TBIL [4]: 0.012 mg/dL
- TC [4]: 79.6 mg/dL
- TG [4]: 112.4 mg/dL
- TP [4]: 5.9 g/dL
- gamma-GTP [4]: 2.2 IU/L
- TERMINAL_BW [5]: 214.9 g
- APTT [5]: 22.4 s
- Bas [5]: 0%
- Eos [5]: 0.8%
- Fbg [5]: 351.2 mg/dL
- Ht [5]: 42.4%
- Lym [5]: 73.2%
- MCHC [5]: 32.4%
- MCV [5]: 62.3 fL
- Mono [5]: 2%
- PT [5]: 15.6 s
- Plat [5]: 129.4 x10_4/uL
- RBC [5]: 681.2 x10_4/ul
- Ret [5]: 3.3%
- WBC [5]: 80.5 x10_2/uL
- KIDNEY_L [5]: 0.9 g
- KIDNEY_R [5]: 1 g
- KIDNEY_TOTAL [5]: 1.9 g
- LIVER [5]: 9.5 g
- ALP [5]: 1597.6 IU/L
- ALT [5]: 40.4 IU/L
- AST [5]: 70.2 IU/L
- BUN [5]: 12.8 mg/dL
- CRE [5]: 0.2 mg/dL
- Ca [5]: 10.8 mg/dL
- Cl [5]: 107.2 meq/L
- DBIL [5]: 0 mg/dL
- IP [5]: 7.4 mg/dL
- LDH [5]: 182.6 IU/L
- Na [5]: 143 meq/L
- PL [5]: 137.8 mg/dL
- RALB [5]: 2.9 g/dL
- TBIL [5]: 0 mg/dL
- TC [5]: 74.4 mg/dL
- TG [5]: 83.6 mg/dL
- TP [5]: 5.5 g/dL
- gamma-GTP [5]: 1.4 IU/L
- TERMINAL_BW [6]: 229.8 g
- TERMINAL_BW [7]: 278.8 g
- TERMINAL_BW [8]: 316.5 g
- APTT [6]: 23.9 s
- Bas [6]: 0%
- Eos [6]: 1.2%
- Fbg [6]: 346.8 mg/dL
- Ht [6]: 41.6%
- Lym [6]: 74.4%
- MCHC [6]: 33.3%
- MCV [6]: 60.2 fL
- Mono [6]: 3%
- PT [6]: 15.7 s
- Plat [6]: 112.7 x10_4/uL
- RBC [6]: 691.2 x10_4/ul
- Ret [6]: 4.2%
- WBC [6]: 123.8 x10_2/uL
- APTT [7]: 25.3 s
- Bas [7]: 0%
- Eos [7]: 1%
- Fbg [7]: 316.4 mg/dL
- Ht [7]: 41.7%
- Lym [7]: 79.4%
- MCHC [7]: 32.7%
- MCV [7]: 58.7 fL
- Mono [7]: 1.8%
- PT [7]: 15.2 s
- Plat [7]: 102.3 x10_4/uL
- RBC [7]: 710.4 x10_4/ul
- Ret [7]: 4.4%
- WBC [7]: 103 x10_2/uL
- APTT [8]: 26 s
- Bas [8]: 0%
- Eos [8]: 1.2%
- Fbg [8]: 345.5 mg/dL
- Ht [8]: 44.9%
- Lym [8]: 79%
- MCHC [8]: 33.7%
- MCV [8]: 55.6 fL
- Mono [8]: 2.5%
- PT [8]: 15.3 s
- Plat [8]: 98.6 x10_4/uL
- RBC [8]: 808.8 x10_4/ul
- Ret [8]: 2.4%
- WBC [8]: 105 x10_2/uL
- KIDNEY_L [6]: 1 g
- KIDNEY_R [6]: 1 g
- KIDNEY_TOTAL [6]: 2 g
- KIDNEY_L [7]: 1.1 g
- KIDNEY_R [7]: 1.2 g
- KIDNEY_TOTAL [7]: 2.3 g
- KIDNEY_L [8]: 1.2 g
- KIDNEY_R [8]: 1.3 g
- KIDNEY_TOTAL [8]: 2.5 g
- LIVER [6]: 11 g
- LIVER [7]: 12.8 g
- LIVER [8]: 13.4 g
- ALP [6]: 1394 IU/L
- ALT [6]: 45 IU/L
- AST [6]: 67.2 IU/L
- BUN [6]: 14.8 mg/dL
- CRE [6]: 0.2 mg/dL
- Ca [6]: 10.8 mg/dL
- Cl [6]: 105.4 meq/L
- DBIL [6]: 0 mg/dL
- IP [6]: 8 mg/dL
- LDH [6]: 160.8 IU/L
- Na [6]: 141.6 meq/L
- PL [6]: 170.6 mg/dL
- RALB [6]: 2.9 g/dL
- TBIL [6]: 0 mg/dL
- TC [6]: 80.6 mg/dL
- TG [6]: 195.4 mg/dL
- TP [6]: 5.4 g/dL
- gamma-GTP [6]: 1.4 IU/L
- ALP [7]: 1544.2 IU/L
- ALT [7]: 44 IU/L
- AST [7]: 68 IU/L
- BUN [7]: 15.2 mg/dL
- CRE [7]: 0.1 mg/dL
- Ca [7]: 10.6 mg/dL
- Cl [7]: 104.2 meq/L
- DBIL [7]: 0 mg/dL
- IP [7]: 7.9 mg/dL
- LDH [7]: 149.6 IU/L
- Na [7]: 143.2 meq/L
- PL [7]: 149.6 mg/dL
- RALB [7]: 3 g/dL
- TBIL [7]: 0.002 mg/dL
- TC [7]: 74.4 mg/dL
- TG [7]: 147.2 mg/dL
- TP [7]: 5.6 g/dL
- gamma-GTP [7]: 1.6 IU/L
- ALP [8]: 1456 IU/L
- ALT [8]: 66 IU/L
- AST [8]: 98.2 IU/L
- BUN [8]: 17.5 mg/dL
- CRE [8]: 0.2 mg/dL
- Ca [8]: 10.4 mg/dL
- Cl [8]: 106 meq/L
- DBIL [8]: 0 mg/dL
- IP [8]: 6.6 mg/dL
- LDH [8]: 170.5 IU/L
- Na [8]: 141.2 meq/L
- PL [8]: 152.5 mg/dL
- RALB [8]: 3 g/dL
- TBIL [8]: 0 mg/dL
- TC [8]: 75.5 mg/dL
- TG [8]: 165.2 mg/dL
- TP [8]: 5.8 g/dL
- gamma-GTP [8]: 2 IU/L

Reference: ChEMBL document CHEMBL3885861, “Open TG-GATES”
